The assay relates to herpes simplex virus type 2 (HSV-2). Nature of the assay: In vitro HSV-2 bioassay: virucidal plaque assay (HEP-2 cells). Particulars: for plaque count / titer: Table 3. The format is cell-based, HSV-2 strain 333. The protocol: Evidence of the efficacy of the virucides of the invention in vitro has been obtained from bioassay using HSV-2, using a standard assay procedure. Serial dilutions of the compounds were tested for their ability to prevent plaque formation by a stock virus suspension. Reduction of plaque titer by test compounds as compared to mock treated controls was indicative of virucidal activity. […] These represent the upper limit for the drug concentration, since dilutions were not carried beyond 1:6400 and in some cases 1:12800.
Cell Culture. Cell cultures used for the propagation and titration of HSV-2 were the human diploid lung embryonic line MRC-5 and the human malignant epitheloid cell line HEP-2 respectively. Stock monolayer cultures of both cell lines were propagated in Dulbecco's Modified Eagle's medium (DME) supplemented with 10% (V/V) calf serum. Spinner cultures for mass production of HEP-2 cells were grown in Joklik's medium supplemented with 10% (V/V) calf serum and 1% (W/V) pluronic acid. Monolayer cultures of HEP-2 cells for plaque or virucidal assay were seeded into 60 mm dishes in DME supplemented with 10% calf serum and antibiotics. Stock cultures were maintained in antibiotic free medium.
Herpes simplex virus, type 2 (HSV-2) strain 333 was obtained from Dr. John Hughes of the Dept. of Medical Microbiology, College of Medicine, The Ohio State University. Stocks of HSV-2 were prepared in the human diploid embryonic lung cell line, MRC-5. Confluent MRC-5 monolayer cultures in T-75 plastic flasks were washed one time with Hank's and Balanced Salt solution (HBSS) and infected with 0.5 ml of HSV-2, strain 333 stock. Virus was adsorbed for 1 hour at 37° C. Then the culture was refed with 15 ml of DME supplemented with 1% (V/V) calf serum. Virus was harvested 48 hours later when cytopathology was complete. Cultures were frozen and thawed rapidly three times to release cell associated virus, clarified by centrifugation at 10,000×g for 15 minutes at 4° C., aliquoted into 5 ml lots and frozen at -70° C. One lot was taken for virus titration.
HSV-2 was titrated by plaque assay in HEP-2 cells under a semi-solid methyl cellulose overlay. Tenfold serial dilutions of virus were prepared in HBSS and 0.3 ml aliquots of each dilution inoculated onto triplicate HEP-2 cell monolayers in 60 mm plastic petri dishes. Adsorption of virus was for 1 hour at 37° C. Plates were then overlayed with 5 ml of a 1:1 mixture of 2×DME supplemented with 2% (V/V) calf serum and 3% (W/V) methyl cellulose to give a final 1×DME supplemented with 1% calf serum and 1.5% methylcellulose. Infected plates were incubated at 37° C. in a humidified 10% CO2 atmosphere for 48 hours. Virus plaques were visualized by staining with crystal violet and counted under a dissecting microscope. Virus titers were calculated from the plaque numbers by averaging the plaque count and multiplying by 3.3 (0.3 ml plates).
The following procedure was employed to assay virucidal activity in various test samples. Compounds were received as a solution in DMSO and were serially diluted in HBSS as described for each experiment. For the test, 1 ml of each dilution was mixed with 1 ml of a stock virus suspension diluted to approximately 9×10^3 plaque forming units (P.F.U.)/ml. This test mixture was incubated at 25° C. for 30 minutes, then inoculated onto a cell culture (HEP-2) for plaque assay as described previously. Mock treated (virus plus HBSS) controls were included with each test. Any reduction of plaque titer by test compounds as compared to the mock treated control was indicative of virucidal activity.
Samples from RP-HPLC fractionation of the CLOH, produced according to Example 2, as well as purified samples of palmitic, myristic and oleic acids and Vitamin D2, were tested for HSV-2 bioactivity. […] Pure oleic acid was not active in this assay, nor were palmitic and myristic acids and Vitamin D2. […]

Values after ≈ are worked out from the molar mass of the structure shown.

Take `CCC=CCC=CCC=CCC=CCC=CCC=CCCC(=O)O` [DHA, 4,7,10,13,16,19 Docosahexaenoic Acid]: for the setting “Human alphaherpesvirus 2, 0.5 h, Table 4 run, 30 min at 25° C., upper limit, dilutions to 1:12800, read-out: MIC (lowest concentration producing a 3-log reduction in virus titer)”, the MIC was 0.47 µg/mL (≈ 1.43 µM). The plaque count was found to be 0 (dilution 1:10); 0 (dilution 1:100); 0 (dilution 1:400, TNTC = too numerous to count); 0 (dilution 1:800, TNTC = too numerous to count); 0 (dilution 1:1600, TNTC = too numerous to count); 0 (dilution 1:3200, TNTC = too numerous to count). The plaque count turned out to be 0 (dilution 1:6400, TNTC = too numerous to count) and 0 (dilution 1:12800, TNTC = too numerous to count). In addition, the titer by setting is: (dilution 1:10, control titer 4.5 × 10^3) 0; (dilution 1:100) 0; (dilution 1:400) 0; (dilution 1:800) 0; (dilution 1:1600) 0; (dilution 1:3200) 0. In addition, the titer by setting is: (dilution 1:6400) 0; (dilution 1:12800) 0. Also, for the setting “in vitro bioassay”, the “virucidal activity against HSV-2 in words” value was “potent and fast-acting virucides”.
